# Like-named read-outs stand apart in the source and are kept apart here.
# Experiments:
# [1] = test system: M. abscessus (n = 20) clinical isolates; experiment: MIC against rapid-growing NTM clinical isolates; assay type: cell-based; conditions: for MIC90: Mycobacteroides abscessus
# [2] = test system: M. chelonae (n = 11) clinical isolates; experiment: MIC against rapid-growing NTM clinical isolates; assay type: cell-based; conditions: for MIC90: Mycobacteroides chelonae
# [3] = test system: M. fortuitum (n = 11) clinical isolates; experiment: MIC against rapid-growing NTM clinical isolates; assay type: cell-based; conditions: for MIC90: Mycolicibacterium fortuitum
# Other NTM (n = 12) = experiment: MIC against rapid-growing NTM clinical isolates; assay type: cell-based
# [4] = assay type: cell-based; conditions: for Interpretation of checkerboard synergy testing: antibiotic in combination with CRS400393 (benzothiazole amides)
# M. abscessus 1 = experiment: MIC in MHB versus 7H9+OADC; assay type: cell-based
# M. abscessus 21 = experiment: MIC in MHB versus 7H9+OADC; assay type: cell-based
# M. abscessus 79 = experiment: MIC in MHB versus 7H9+OADC; assay type: cell-based
# M. abscessus ATCC 19977 = experiment: MIC, broth microdilution with resazurin (MHB, 3 days); assay type: cell-based; conditions: Mycobacteroides abscessus, ATCC19977
# [5] = test system: M. abscessus massiliense 119; experiment: as above; assay type: cell-based; conditions: Mycobacteroides abscessus
# M. chelonae 93 = experiment: as above; assay type: cell-based; conditions: Mycobacteroides chelonae, 93
# M. fortuitum 41 = experiment: as above; assay type: cell-based; conditions: Mycolicibacterium fortuitum, 41
# [6] = test system: M. peregrinum ATCC 700686; experiment: as above; assay type: cell-based; conditions: Mycolicibacterium peregrinum, ATCC700686
# M. avium 101 = experiment: MIC, Middlebrook medium (7H9 + OADC, 7 days); assay type: cell-based; conditions: Mycobacterium avium, 101, 168 h
# M. intracellulare 1956 = experiment: MIC, Middlebrook medium (7H9 + OADC, 7 days); assay type: cell-based; conditions: Mycobacterium intracellulare, 1956, 168 h
# M. chimaera 1502055 = experiment: MIC, Middlebrook medium (7H9 + OADC, 7 days); assay type: cell-based; conditions: 1502055, 168 h
# [7] = test system: M. tuberculosis H37Rv mc^2 6206; experiment: microbe, parasite or virus in culture; assay type: cell-based; conditions: Mycobacterium tuberculosis, 168 h
# S. aureus ATCC 29213 = experiment: MIC, spectrum of activity; assay type: cell-based; conditions: Staphylococcus aureus, ATCC29213
# E. faecalis ATCC 29212 = experiment: MIC, spectrum of activity; assay type: cell-based; conditions: Enterococcus faecalis, ATCC29212
# S. pyogenes ATCC 19615 = experiment: MIC, spectrum of activity; assay type: cell-based; conditions: Streptococcus pyogenes, ATCC19615
# S. pneumoniae ATCC 49619 = experiment: MIC, spectrum of activity; assay type: cell-based; conditions: Streptococcus pneumoniae, ATCC49619
# [8] = test system: E. coli tolC CGSC 5633 (efflux mutant strain); experiment: microbe, parasite or virus in culture; assay type: cell-based; conditions: Escherichia coli
# [9] = test system: E. coli ATCC 25922 + PMBN (permeabilized); experiment: MIC, spectrum of activity; assay type: cell-based; conditions: Escherichia coli, ATCC25922
# P. aeruginosa ATCC 35151 = experiment: MIC, spectrum of activity; assay type: cell-based; conditions: Pseudomonas aeruginosa, ATCC35151
# C. albicans ATCC 10231 = experiment: MIC, spectrum of activity; assay type: cell-based; conditions: Candida albicans, ATCC10231
# HepG2 cytotoxicity, 72 h = assay type: cell-based; conditions: human, HepG2 cells, HepG2, 72 h, read-out: HepG2 cytotox., IC50
# Experimental: (§1) ADMET assays were performed through NIAID Preclinical Services and Eurofins. Potential for cytotoxicity was monitored in HepG2 cells after 72 h growth in the presence of test compounds, either prepared as 10-point 3-fold serial dilutions or at a fixed 10 μM concentration. Cell viability was measured using the CellTiter-Glo® Luminescent Cell Viability Assay (Promega) or via fluorescent image analysis. Cytotoxicity was expressed as IC50 or as percent reduction of viable cells relative to a reference compound. Metabolic stability of compounds was evaluated via incubation with human liver microsomes at 37°C and quantitative analysis of parent compound by LC-MS/MS in samples removed at 0, 5, 15, 30, and 45 min (Obach, [1999]). For cytochrome P450 (CYP) inhibition assays, compounds were prepared as a 7-point dilution series and incubated with human liver microsomes in buffer containing 2 mM NADPH and probe substrate. […] Thermodynamic solubility of compounds in aqueous media was determined by incubation in 50 mM potassium phosphate buffer (pH 7.4) for 24 h, followed by HPLC-UV detection of compound in the filtrate (Analiza, Cleveland, OH, United States).
# physchem = assay type: physicochemical; conditions: pH 7.4, aqueous buffer, thermodynamic from solid
# Experimental: as §1
# CYP2B6 = target: T1, CYP2B6 (Homo sapiens, UniProt P20813); experiment: CYP inhibition in human liver microsomes; assay type: in vitro ADME
# T1 construct: incubated with human liver microsomes in buffer containing 2 mM NADPH and probe substrate; from tissue; host or cells: human liver microsomes
# T1 sequence (P20813 1-491): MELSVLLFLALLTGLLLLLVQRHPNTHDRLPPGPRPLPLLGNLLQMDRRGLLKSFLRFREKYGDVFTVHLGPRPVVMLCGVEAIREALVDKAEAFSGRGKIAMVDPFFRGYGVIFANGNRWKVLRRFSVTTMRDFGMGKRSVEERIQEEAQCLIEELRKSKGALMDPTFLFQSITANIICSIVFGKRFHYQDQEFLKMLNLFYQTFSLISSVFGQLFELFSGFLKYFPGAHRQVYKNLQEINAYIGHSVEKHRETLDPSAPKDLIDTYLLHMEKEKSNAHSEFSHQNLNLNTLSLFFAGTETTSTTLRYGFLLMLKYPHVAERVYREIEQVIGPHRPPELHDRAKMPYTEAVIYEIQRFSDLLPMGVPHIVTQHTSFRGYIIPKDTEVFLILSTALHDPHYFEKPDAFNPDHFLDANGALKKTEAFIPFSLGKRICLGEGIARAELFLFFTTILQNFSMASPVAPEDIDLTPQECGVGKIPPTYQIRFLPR
# Experimental: as §1
# CYP3A = experiment: CYP inhibition in human liver microsomes; assay type: in vitro ADME
# Experimental: as §1
# [10] = 50% complement-inactivated human serum
# [11] = M. abscessus (n = 20), read-out: MIC90
# [12] = M. chelonae (n = 11), read-out: MIC90
# [13] = M. fortuitum (n = 11), read-out: MIC90
# [14] = Other NTM (n = 12), read-out: MIC90
# [15] = antibiotic in checkerboard combination with CRS400393
# [16] = M. abscessus 1, 7H9 + OADC (5 mg/mL albumin)
# [17] = M. abscessus 21, 7H9 + OADC (5 mg/mL albumin)
# [18] = M. abscessus 79, 7H9 + OADC (5 mg/mL albumin)
structure (smiles),measurement,setting,value
"NCC[C@H](O)C(=O)N[C@@H]1C[C@H](N)[C@@H](O[C@H]2O[C@H](CN)[C@@H](O)[C@H](O)[C@H]2O)[C@H](O)[C@H]1O[C@H]1O[C@H](CO)[C@@H](O)[C@H](N)[C@H]1O [Amikacin, reference compound]",MIC90,[1]; [11],16 µg/mL
same,MIC90,[2]; [12],> 16 µg/mL
same,MIC range,[3]; M. fortuitum (n = 11),0.5 to 4 µg/mL
same,MIC90,[3]; [13],2 µg/mL
same,MIC range,Other NTM (n = 12); Other NTM (n = 12),0.5 to 16 µg/mL
same,MIC90,Other NTM (n = 12); [14],16 µg/mL
same,FIC Index,[4]; [15],1
same,Interpretation of checkerboard synergy testing,[4],additive
same,MIC,M. abscessus 1; [16],16 µg/mL
same,MIC,"M. abscessus 1; M. abscessus 1, MHB",8 µg/mL
same,MIC,M. abscessus 21; [17],4 µg/mL
same,MIC,"M. abscessus 21; M. abscessus 21, MHB",2 µg/mL
same,MIC,M. abscessus 79; [18],4 µg/mL
same,MIC,"M. abscessus 79; M. abscessus 79, MHB",2 µg/mL
"CC[C@H]1OC(=O)[C@H](C)[C@@H](O[C@H]2C[C@@](C)(OC)[C@@H](O)[C@H](C)O2)[C@H](C)[C@@H](O[C@@H]2O[C@H](C)C[C@H](N(C)C)[C@H]2O)[C@](C)(O)C[C@@H](C)CN(C)[C@H](C)[C@@H](O)[C@]1(C)O [Azithromycin, reference compound]",MIC90,[1]; [11],> 8 µg/mL
same,MIC range,[2]; M. chelonae (n = 11),0.12 to 0.5 µg/mL
same,MIC90,[2]; [12],0.5 µg/mL
same,MIC90,[3]; [13],> 8 µg/mL
same,MIC90,Other NTM (n = 12); [14],> 8 µg/mL
same,FIC Index,[4]; [15],1
same,Interpretation of checkerboard synergy testing,[4],additive
same,lung histology,Mabs 21; after 4 weeks of treatment,only minimal pathologic evidence of inflammatory infiltrates
same,reduction of lung CFU compared to the untreated group,"Mabs 21; oral gavage 100 mg/kg, 4 weeks",0.38 Log10 CFU
COc1nc2ccc(Br)cc2cc1[C@@H](c1ccccc1)[C@@](O)(CCN(C)C)c1cccc2ccccc12 [Bedaquiline],FIC Index,[4]; [15],2
same,Interpretation of checkerboard synergy testing,[4],indifferent
same,Interpretation of checkerboard synergy testing,[4]; listed as bedaquiline,indifference
CC12CCCC(C(=O)Nc3nc4ccc(OC(F)(F)F)cc4s3)(CCC1)C2 [CRS400359],MIC,M. abscessus ATCC 19977,≤ 0.06 µg/mL
same,MIC,[5],≤ 0.06 µg/mL
same,MIC,M. chelonae 93,0.12 µg/mL
same,MIC,M. fortuitum 41,0.12 µg/mL
same,MIC,[6],0.12 µg/mL
same,MIC,M. avium 101,2 µg/mL
same,MIC,M. intracellulare 1956,2 µg/mL
same,MIC,M. chimaera 1502055,2 µg/mL
same,MIC,[7],0.5 µg/mL
same,MIC,S. aureus ATCC 29213,> 64 µg/mL
same,MIC,E. faecalis ATCC 29212,> 64 µg/mL
same,MIC,S. pyogenes ATCC 19615,> 64 µg/mL
same,MIC,S. pneumoniae ATCC 49619,32 µg/mL
same,MIC,[8],> 64 µg/mL
same,MIC,[9],> 64 µg/mL
same,MIC,P. aeruginosa ATCC 35151,64 µg/mL
same,MIC,C. albicans ATCC 10231,64 µg/mL
same,IC50 at 72 h,"HepG2 cytotoxicity, 72 h",10 µM
same,IC50 at 72 h,"HepG2 cytotoxicity, 72 h; value in brackets",4 µg/mL
same,solubility at 24 h,physchem,< 3 µM
same,inhibition at 10 µM,CYP2B6,30%
same,inhibition at 10 µM,CYP3A,0%
same,MIC range,[1]; M. abscessus (n = 20),0.06 to 2 µg/mL
same,MIC90,[1],0.25 µg/mL
same,MIC range,[2]; M. chelonae (n = 11),0.25 to 0.5 µg/mL
same,MIC90,[2],0.25 µg/mL
same,MIC range,[3]; M. fortuitum (n = 11),0.06 to 1 µg/mL
same,MIC90,[3],1 µg/mL
same,MIC90,Other NTM (n = 12),0.5 µg/mL
same,MIC range,Other NTM (n = 12); Other NTM (n = 12),0.12 to 2 µg/mL
same,MIC,M. abscessus 1; [16],1 µg/mL
same,MIC,"M. abscessus 1; M. abscessus 1, MHB",0.06 µg/mL
same,MIC,M. abscessus 21; [17],2 µg/mL
same,MIC,"M. abscessus 21; M. abscessus 21, MHB",0.06 µg/mL
same,MIC,M. abscessus 79; [18],0.25 µg/mL
same,MIC,"M. abscessus 79; M. abscessus 79, MHB",0.06 µg/mL
same,Protein (serum) binding,[10],>95%
CO[C@@]1(NC(=O)Cc2cccs2)C(=O)N2C(C(=O)O)=C(COC(N)=O)CS[C@@H]21 [Cefoxitin],FIC Index,[4]; [15],0.56
same,Interpretation of checkerboard synergy testing,[4],additive
CC(C)/N=c1\cc2n(-c3ccc(Cl)cc3)c3ccccc3nc-2cc1Nc1ccc(Cl)cc1 [Clofazimine],FIC Index,[4]; [15],0.52
same,Interpretation of checkerboard synergy testing,[4],additive
C[C@H]1c2cccc(O)c2C(=O)C2=C(O)[C@]3(O)C(=O)C(C(N)=O)=C(O)[C@@H](N(C)C)[C@@H]3[C@@H](O)[C@@H]21 [Doxycycline],FIC Index,[4]; [15],2
same,Interpretation of checkerboard synergy testing,[4],indifferent
same,Interpretation of checkerboard synergy testing,[4]; listed as doxycycline,indifference
"CC(=O)NC[C@H]1CN(c2ccc(N3CCOCC3)c(F)c2)C(=O)O1 [Linezolid, reference compound]",MIC90,[1]; [11],> 8 µg/mL
same,MIC range,[2]; M. chelonae (n = 11),1 to 8 µg/mL
same,MIC90,[2]; [12],8 µg/mL
same,MIC90,[3]; [13],> 8 µg/mL
same,MIC90,Other NTM (n = 12); [14],> 8 µg/mL
same,FIC Index,[4],0.56
Cc1cc(NS(=O)(=O)c2ccc(N)cc2)no1 [Sulfamethoxazole],FIC Index,[4],0.56
NC[C@H]1O[C@H](O[C@H]2[C@H](O)[C@@H](O[C@H]3O[C@H](CO)[C@@H](O)[C@H](N)[C@H]3O)[C@H](N)C[C@@H]2N)[C@H](N)C[C@@H]1O [Tobramycin],FIC Index,[4]; [15],0.75
same,Interpretation of checkerboard synergy testing,[4],additive

# — paper PMC6158578, “Optimization and Lead Selection of Benzothiazole Amide Analogs Toward a Novel Antimycobacterial Agent” (Frontiers in Microbiology, 2018)
